Data from patent US20080096947A1, “Parenteral Forms Of Administration Of Imexon And Method For The Production Thereof” (Heidelberg Pharma AG, priority 2004, published 2008).
“Also recorded” adds a separate entry of the source.

Key:
[1] = Solubility of imexon in water; type: physicochemical
[2] = background statement; therapeutically effective dosages only intravenously; cited from earlier work
[3] = Stability of imexon in aqueous solution; type: physicochemical; conditions: aziridine ring opens, isomerises to water-insoluble products
[4] = Stability of imexon in organic solvents; type: physicochemical

solubility in water [1]: highly soluble in water | stability in organic solvents ([4]; some organic solvents, in contrast to water): remains stable over a prolonged period
SMILES: N=C1NC(=O)N2CC12 (centres unmarked) [Imexon, 4-imino-1,3-diazabicyclo-(3.1.0)-hexane-2-one]
bioavailability [2]: low bioavailability | stability in water / aqueous solutions [3]: not stable; also recorded: decomposes in aqueous solutions after a short period | stability of solution in DMSO ([4]; DMSO): stable solution of imexon can be produced
